# Columns and labels:
# human CB2 (hCB2) = molecular target: T1, human CB2 (hCB2) (Homo sapiens, UniProt P34972); experiment: 35S GTPγS binding assay, hCB2 agonist; assay type: biochemical; conditions: GTPγS agonist, HEK-293 membranes; read-out: hCB2 EC50 (GTPyS ag)
# T1 construct: (cDNA clone) CNR0200000
# Summary of the method: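 Membranes (5 μg) from cells transfected with hCB2 cDNA in pcDNA3.1+ incubated with SPA beads, 0.1 nM [35S]GTPγS and 20 uM GDP in 50 mM HEPES pH 7.4, 100 mM NaCl, 5 mM MgCl2, 0.001% saponin, ± test compound. Incubation 90 min at room temperature; bound label read by scintillation counting.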
# human CB1 (hCB1) = molecular target: T2, human CB1 (hCB1) (Homo sapiens, UniProt P21554); experiment: 35S GTPγS binding assay, hCB1 agonist; assay type: biochemical; conditions: GTPγS agonist, HEK-293 membranes; read-out: hCB1 EC50 (GTPyS ag)
# T2 construct: (cDNA clone) CNR01L000
# human CB1 receptors = molecular target: T3, human CB1 receptors (Homo sapiens, UniProt P21554); experiment: cAMP assay in HEK-293 cells, hCB1 agonist; assay type: cell-based; conditions: inhibition of forskolin-stimulated cAMP, HEK-293 cells; for EC50: read-out: hCB1 EC50 (cAMP ag)
# T3 construct: (cDNA clone) CNR01L000
# Summary of the method: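 Stable hCB1 HEK-293 cells suspended in HBSS with 10 mM HEPES and 0.1% fatty acid-free BSA, incubated 30 min at 37° C. with compound plus forskolin (90 uM in the 3× compound solution). Lysed cAMP measured by enzyme-fragment kit; EC50 = 50% inhibition of forskolin-stimulated cAMP (forskolin maximum = 100%), sigmoidal fit.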
# T3 sequence (P21554 whole entry): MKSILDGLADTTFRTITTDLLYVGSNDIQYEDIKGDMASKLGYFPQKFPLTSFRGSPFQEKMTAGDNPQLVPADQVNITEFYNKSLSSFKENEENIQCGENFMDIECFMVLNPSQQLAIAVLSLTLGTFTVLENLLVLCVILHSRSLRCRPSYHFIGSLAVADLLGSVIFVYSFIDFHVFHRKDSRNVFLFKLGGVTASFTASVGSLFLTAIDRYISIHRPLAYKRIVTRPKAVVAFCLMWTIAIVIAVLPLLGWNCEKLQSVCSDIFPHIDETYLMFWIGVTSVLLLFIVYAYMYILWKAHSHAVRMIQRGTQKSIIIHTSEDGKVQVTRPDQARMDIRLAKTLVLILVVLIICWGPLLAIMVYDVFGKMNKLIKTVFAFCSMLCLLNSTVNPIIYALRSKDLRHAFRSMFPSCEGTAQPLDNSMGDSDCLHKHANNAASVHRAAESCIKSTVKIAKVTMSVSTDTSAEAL
# T2 sequence (P21554 whole entry): as above
# T1 sequence (P34972 whole entry): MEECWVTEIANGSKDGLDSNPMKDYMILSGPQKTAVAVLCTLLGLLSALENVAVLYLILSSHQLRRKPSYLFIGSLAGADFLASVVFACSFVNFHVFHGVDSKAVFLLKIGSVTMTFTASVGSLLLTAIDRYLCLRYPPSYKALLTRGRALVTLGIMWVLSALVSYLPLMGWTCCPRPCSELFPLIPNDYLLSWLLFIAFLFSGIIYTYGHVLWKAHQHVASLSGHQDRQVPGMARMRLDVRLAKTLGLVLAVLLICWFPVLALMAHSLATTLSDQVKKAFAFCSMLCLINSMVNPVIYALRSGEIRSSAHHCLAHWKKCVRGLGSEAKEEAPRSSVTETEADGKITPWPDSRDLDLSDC
Structure (SMILES),EC50 (human CB2 (hCB2)),EC50 (human CB1 (hCB1)),"hCB1 EC50 (cAMP ag, nM) (human CB1 receptors)",EC50 (human CB1 receptors)
"Cc1cc2cc(C(=O)c3cccc(Cl)c3Cl)sc2n1S(=O)(=O)N1CCOCC1 [Compound 45, (2,3-Dichlorophenyl)(5-methyl-6-(morpholinosulfonyl)-6H-thieno[2,3-b]pyrrol-2-yl)methanone]",< 100 nM,100 to 1000 nM,"NS (NS means “Not Significant,” which means less than 30% agonist activity when compared to the positive control.)",–
"Cc1cc2cc(C(=O)c3cccc(Cl)c3Cl)sc2n1S(=O)(=O)CC1CCOCC1 [Compound 46, (2,3-Dichlorophenyl)(5-methyl-6-((tetrahydro-2H-pyran-4-yl)methylsulfonyl)-6H-thieno[2,3-b]pyrrol-2-yl)methanone]",< 100 nM,< 100 nM,–,< 100 nM
"COc1ccc(C(=O)c2cc3cc(C)n(S(=O)(=O)N4CCOCC4)c3s2)cc1 [Compound 53, (4-methoxyphenyl)(5-methyl-6-(morpholinosulfonyl)-6H-thieno[2,3-b]pyrrol-2-yl)methanone]",< 100 nM,100 to 1000 nM,–,< 100 nM
"COc1ccc(C(=O)c2cc3cc(C)n(S(=O)(=O)CC4CCOCC4)c3s2)cc1 [Compound 57, (4-Methoxyphenyl)(5-methyl-6-((tetrahydro-2H-pyran-4-yl)methylsulfonyl)-6H-thieno[2,3-b]pyrrol-2-yl)methanone]",< 100 nM,< 100 nM,–,< 100 nM
"COc1ccc(C(=O)c2cc3cc(C)n(CC4CCOCC4)c3s2)cc1 [Compound 62, (4-Methoxyphenyl)(5-methyl-6-((tetrahydro-2H-pyran-4-yl)methyl)-6H-thieno[2,3-b]pyrrol-2-yl)methanone]",< 100 nM,100 to 1000 nM,–,100 to 1000 nM
"COc1ccc(C(=O)c2cc3cc(C)n(CCN4CCCCC4)c3s2)cc1 [Compound 78, (4-Methoxyphenyl)(5-methyl-6-(2-(piperidin-1-yl)ethyl)-6H-thieno[2,3-b]pyrrol-2-yl)methanone]",< 100 nM,< 100 nM,–,1000 to 10000 nM
"COc1ccc(C(=O)c2cc3cc(C)n(CCC4CCOCC4)c3s2)cc1 [Compound 82, (4-Methoxyphenyl)(5-methyl-6-(2-(tetrahydro-2H-pyran-4-yl)ethyl)-6H-thieno[2,3-b]pyrrol-2-yl)methanone]",< 100 nM,100 to 1000 nM,–,100 to 1000 nM
"COc1ccc(C(=O)c2cc3cc(C)n(CCN4CCOCC4)c3s2)c(C(F)(F)F)c1 [Compound 119, (4-Methoxy-2-(trifluoromethyl)phenyl)(5-methyl-6-(2-morpholinoethyl)-6H-thieno[2,3-b]pyrrol-2-yl)methanone]",< 100 nM,100 to 1000 nM,–,100 to 1000 nM
"COc1ccc(C(=O)c2cc3cc(C)n(CCN4CCOCC4)c3s2)c(OC)c1 [Compound 120, (2,4-Dimethoxyphenyl)(5-methyl-6-(2-morpholinoethyl)-6H-thieno[2,3-b]pyrrol-2-yl)methanone]",< 100 nM,100 to 1000 nM,–,100 to 1000 nM
"CCOc1ccc(C(=O)c2cc3cc(C)n(CCN4CCOCC4)c3s2)c(Cl)c1 [Compound 126, (2-chloro-4-ethoxyphenyl)(5-methyl-6-(2-morpholinoethyl)-6H-thieno[2,3-b]pyrrol-2-yl)methanone]",< 100 nM,1000 to 10000 nM,–,1000 to 10000 nM
"COc1ccc(C(=O)c2cc3cc(C)n(S(=O)(=O)CCN4CCOCC4)c3s2)cc1 [Compound 139, (4-methoxyphenyl)(5-methyl-6-(2-morpholinoethylsulfonyl)-6H-thieno[2,3-b]pyrrol-2-yl)methanone]",< 100 nM,100 to 1000 nM,–,100 to 1000 nM
"COc1ccc(C(=O)c2cc3cc(C)n(CCN4CCCOCC4)c3s2)cn1 [Compound 158, (6-(2-(1,4-oxazepan-4-yl)ethyl)-5-methyl-6H-thieno[2,3-b]pyrrol-2-yl)(6-methoxypyridin-3-yl)methanone]",100 to 1000 nM,> 10000 nM,"NS (NS means “Not Significant,” which means less than 30% agonist activity when compared to the positive control.)",–
"COc1ccc(C(=O)c2cc3cc(C)n(CCNC4CCOC4)c3s2)cn1 (stereo not drawn) [Compound 164, (6-methoxypyridin-3-yl)(5-methyl-6-(2-((tetrahydrofuran-3-yl)amino)ethyl)-6H-thieno[2,3-b]pyrrol-2-yl)methanone]",1000 to 10000 nM,> 10000 nM,"NS (NS means “Not Significant,” which means less than 30% agonist activity when compared to the positive control.)",–
"COc1ccc(C(=O)c2cc3cc(C)n(CCN4CCCC4)c3s2)cn1 [Compound 167, (6-methoxypyridin-3-yl)(5-methyl-6-(2-(pyrrolidin-1-yl)ethyl)-6H-thieno[2,3-b]pyrrol-2-yl)methanone]",1000 to 10000 nM,> 10000 nM,"NS (NS means “Not Significant,” which means less than 30% agonist activity when compared to the positive control.)",–
